Laboratory results published in US10857247B2, “Compounds and compositions for the detection and treatment of Alzheimer's disease and related disorders” (The General Hospital Corporation, priority 2008, dated 2020).
Read-outs that look alike come from different tables or passages of the source.

How the values were obtained:
[1] = normal mice, iv, cited from earlier work
[2] = system: brain amyloid deposits; settings: APP23 transgenic mice, 180 min after iv injection; cited from earlier work
[3] = cited from earlier work
[4] = Biodistribution of [18F]fluoro-RS 86 in rats; assay type: in vivo
Protocol: As described above, 2-(2-methanesulfonylethyl)-8-methyl-2,8-diazaspiro[4,5]decane-1,3-dione was prepared in five steps. The RS-86 mesylate (2 mg) in acetonitrile (0.1 mL) was added to a sealed vial containing dried K^18F/kryptofix and heated at 120° C. for 10 min. The mixture was diluted with water (0.2 mL) and purified by HPLC (C-18 column 250×10 mm, flow 6 mL/min, PBS/acetonitrile (95:5). The fraction containing [^18F]fluoro-RS 86 was evaporated to dryness and the activity dissolved in PBS before filtering. Biodistribution was performed in rats at 5, 30 and 60 min.

**Q.** What does the source list for CNc1ccc(C=Cc2nc3ccc(OCCF)cc3o2)cc1 [BF-168, 6-(2-fluoroethoxy)-2-[2-(4-methylaminophenyl)ethenyl]-benzoxazole]?
**A.** Initial brain uptake ([1]; at 2 min after injection): 3.9 % injected dose/gm; Clearance t1/2 ([1]; clearance from brain): 24.7 min; Labeling in autoradiograms of brain sections [2]: selective labeling of brain amyloid deposits with little non-specific binding

**Q.** With CCN1C(=O)CC2(CCN([11CH3])CC2)C1=O [[^11C]RS-86] as the compound, how does the Brain uptake ([3]; comparison value for the C-11 labeled analog) read?
**A.** The Brain uptake was 1%.

**Q.** And the Initial brain uptake ([3]; rats, biodistribution as a function of time)?
**A.** Its Initial brain uptake is “about 1.1%”.

**Q.** For O=C1CC2(CCNCC2)C(=O)N1CC[18F] [[^18F]fluoro-RS 86, [F-18]-N-2-fluoroethyl-2,8-diazaspiro[4,5]decane-1,3-dione], which Brain uptake ([4]; 5 min) is on record?
**A.** Its Brain uptake is 0.27.

**Q.** And the Brain uptake ([4]; 30 min)?
**A.** The Brain uptake was 0.54.

**Q.** What about the Brain uptake ([4]; 60 min) of the same compound?
**A.** Its Brain uptake is 0.48.

**Q.** And the Blood uptake ([4]; at 30 min)?
**A.** The Blood uptake was 0.3%.

**Q.** And the Liver uptake ([4]; at 30 min)?
**A.** The Liver uptake was 0.64%.

**Q.** What about the Stomach uptake ([4]; at 30 min) of the same compound?
**A.** The Stomach uptake was 0.90%.

**Q.** And the “Uptake in the kidneys (greatest uptake)” value ([4]; at 30 min)?
**A.** Its value is 2.5%.

**Q.** What about the “Defluorination (uptake in bone)” value ([4]; bone at 30 min) of the same compound?
**A.** The value was 0.42%.

**Q.** And the Brain uptake ([4]; restated in comparison with [11C]RS-86)?
**A.** Its Brain uptake is 0.54%.
